Reference: PubChem BioAssay (NCI)
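96-well plates; 48 h exposure; 5 concentrations. Endpoints by linear interpolation between flanking doses. Not reached: highest tested concentration assigned. TGI marks complete inhibition of growth.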

Tests used:
Experiment in all cases: inhibition of tumour cell growth, NCI panel, 48 h
[1] = test system: LOX IMVI melanoma
[2] = test system: HCT-15 colon
[3] = test system: NCI-H23 lung
[4] = test system: UO-31 renal
[5] = test system: SN12C renal
[6] = test system: 786-0 renal
[7] = test system: OVCAR-8 ovarian
[8] = test system: SNB-75 CNS
[9] = test system: PC-3 prostate
[10] = test system: SK-MEL-28 melanoma
[11] = test system: BT-549 breast
[12] = test system: MOLT-4 leukemia
[13] = test system: OVCAR-4 ovarian
[14] = test system: HOP-62 NSCLC
[15] = test system: HL-60(TB) leukemia
[16] = test system: SR leukemia
[17] = test system: TK-10 renal
[18] = test system: K-562 leukemia
[19] = test system: RXF 393 renal
[20] = test system: NCI-H522 lung
[21] = test system: MCF7 breast
[22] = test system: MDA-MB-435
[23] = test system: NCI-H460 lung
[24] = test system: U251 CNS
[25] = test system: MDA-N
[26] = test system: HOP-92 NSCLC
[27] = test system: MDA-MB-231 breast
[28] = test system: A549 NSCLC
[29] = test system: DU-145 prostate
[30] = test system: RPMI-8226 leukemia
[31] = test system: SNB-19 CNS
[32] = test system: IGROV1 ovarian
[33] = test system: CAKI-1 renal
[34] = test system: HS 578T breast
[35] = test system: T-47D breast
[36] = test system: SK-OV-3 ovarian
[37] = test system: SF-268 CNS
[38] = test system: M14 melanoma
[39] = test system: SW-620 colon
[40] = test system: SK-MEL-5 melanoma
[41] = test system: OVCAR-5 ovarian
[42] = test system: COLO 205 colon
[43] = test system: KM12 colon
[44] = test system: SF-295 CNS
[45] = test system: EKVX NSCLC
[46] = test system: UACC-62 melanoma
[47] = test system: ACHN renal
[48] = test system: SK-MEL-2 melanoma
[49] = test system: SF-539 CNS
[50] = test system: NCI-H226 lung
[51] = test system: NCI/ADR-RES ovarian
[52] = test system: OVCAR-3 ovarian
[53] = test system: HCC-2998 colon
[54] = test system: CCRF-CEM leukemia
[55] = test system: HCT-116 colon
[56] = test system: HT29 colon
[57] = test system: UACC-257 melanoma
[58] = test system: MALME-3M melanoma
[59] = test system: A498 renal

Measured: TGI

Cc1cc(O)c(C=NC(=S)C(N)=S)c(=O)o1
> 30.1 µM: [12]
not listed: [58] | [59]
> 100 µM: all other assays above

CN=c1oc2ccccc2cc1C(N)=O
not listed: [13] | [41] | [58] | [59]
> 100 µM: all other assays above

Clc1ccc(C(c2ccc(Cl)cc2)c2cncnc2)cc1
29.3 µM: [25]
36.4 µM: [47]
30 µM: [21] | [38]
25.1 µM: [4]
35.6 µM: [44]
44.8 µM: [54]
33 µM: [6] | [31]
33.2 µM: [42]
31.2 µM: [1]
49.1 µM: [57]
36.6 µM: [5]
32.3 µM: [35]
31.4 µM: [23]
> 100 µM: [15] | [16] | [18] | [30]
29 µM: [13]
34 µM: [27]
25.9 µM: [40]
39.7 µM: [33]
28.3 µM: [56]
30.8 µM: [17]
39.1 µM: [2]
27.3 µM: [9]
27.4 µM: [11]
42.5 µM: [7]
27.9 µM: [52]
36.1 µM: [58]
67.6 µM: [12]
39.9 µM: [34]
32.1 µM: [24]
33.3 µM: [20]
33.8 µM: [32] | [37]
26.9 µM: [55]
28 µM: [22]
25.2 µM: [19]
38.5 µM: [28]
31.3 µM: [14] | [29]
37 µM: [43]
36.9 µM: [3]
28.7 µM: [46]
33.4 µM: [10] | [36]
29.5 µM: [41]
44.4 µM: [51]

Nc1ccc2nc3ccc(=O)cc-3n(-c3ccccc3)c2c1
92.4 µM: [8]
85.7 µM: [59]
not listed: [1] | [16] | [17] | [33] | [57]
> 100 µM: all other assays above

CC(C)=CCc1c(O)c(CC2=C(O)C(C)=C(O)C(CC=C(C)C)(C(=O)C(C)C)C2=O)c(O)c(C(=O)C(C)C)c1O (stereo not drawn)
> 29.5 µM: [14]
> 40.2 µM: [24]
> 44.6 µM: [45]
46.5 µM: [27]
> 31 µM: [31]
> 38.1 µM: [44] | [52]
33.7 µM: [35]
21.8 µM: [50]
31.2 µM: [7]
31.3 µM: [32]
> 36.6 µM: [38]
> 42.5 µM: [41]
25.5 µM: [26]
> 31.2 µM: [30]
25.4 µM: [3]
18.3 µM: [40]
> 28.1 µM: [1]
19.8 µM: [55]
> 45.3 µM: [21]
36.9 µM: [11]
> 40.5 µM: [47]
> 35.3 µM: [6]
21.5 µM: [20]
34 µM: [18]
> 38.4 µM: [22]
> 31.4 µM: [48]
> 31.7 µM: [10]
11.4 µM: [12]
22.4 µM: [46]
21.6 µM: [34]
> 15.1 µM: [54]
> 38.9 µM: [59] | [53]
19.5 µM: [4]
17.5 µM: [43]
> 44.7 µM: [39]
12.6 µM: [56]
17.9 µM: [58]
27.5 µM: [51]
38.1 µM: [25]
28.8 µM: [57]
not listed: [16] | [23]
> 47.7 µM: all other assays above
